From publication PMC11995724, “Antibiotic target discovery by integrated phenotypic and activity-based profiling of electrophilic fragments” (Cell chemical biology, 2025) come the findings set out here.

Each structure is given as a SMILES string.

The nature of the data set: in vitro. Particulars: human, hek293t cells.
A word on the viability: it is a read-out of living cells in per cent, often relative to untreated cells. For `C=CC(=O)N(Cc1cn(CC)nc1C)C1CC1` [2-D13, N-cyclopropyl-N-[(1-ethyl-3-methyl-1H-pyrazol-4-yl)methyl]prop-2-enamide], the viability at 48 h, 25 µM came out at 76.3%.

For the molecule `C=CC(=O)N1CCC(C(=O)NCC(C)(C)C2(O)CCCC2)CC1` [2-D14, N-[2-(1-hydroxycyclopentyl)-2-methylpropyl]-1-(prop-2-enoyl)piperidine-4-carboxamide], the viability at 48 h, 25 µM came to 76.9%.

Turning to `C=CC(=O)NC1(C(N)=O)Cc2ccccc2C1` [2-D15, 2-(prop-2-enamido)-2,3-dihydro-1H-indene-2-carboxamide], the viability at 48 h, 25 µM was found to be 69.7%.

Take `C=CC(=O)Nc1ccc(C(=O)N2CCC3(CC2)OCCCO3)cc1` [2-D16, N-(4-{1,5-dioxa-9-azaspiro[5.5]undecane-9-carbonyl}phenyl)prop-2-enamide]: the viability at 48 h, 25 µM amounted to 49.1%.

As for `C=CC(=O)NC(CO)c1ccnn1C` (stereo not drawn) [2-D17, N-[2-hydroxy-1-(1-methyl-1H-pyrazol-5-yl)ethyl]prop-2-enamide], the viability at 48 h, 25 µM is 45.9%.

On to `C=CC(=O)N1CCC(C(=O)NCC2([S+](C)[O-])CCC2)CC1` (stereo not drawn) [2-D18, N-[(1-methanesulfinylcyclobutyl)methyl]-1-(prop-2-enoyl)piperidine-4-carboxamide], for which the viability at 48 h, 25 µM is 73.4%.

For `C=CC(=O)N(C)Cc1ncc(C(F)(F)F)n1C` [2-D19, N-methyl-N-{[1-methyl-5-(trifluoromethyl)-1H-imidazol-2-yl]methyl}prop-2-enamide], the viability at 48 h, 25 µM came to 70.6%.

On to `C=CC(=O)NCCC(=O)N1CCCN(C(=O)c2ccccc2F)CC1` [2-D20, N-{3-[4-(2-fluorobenzoyl)-1,4-diazepan-1-yl]-3-oxopropyl}prop-2-enamide], for which the viability at 48 h, 25 µM was 93.7%.

Consider `C=CC(=O)NCc1ncccc1S(C)(=O)=O` [2-D21, N-[(3-methanesulfonylpyridin-2-yl)methyl]prop-2-enamide], for which the viability at 48 h, 25 µM came to 80%.

On to `C=CC(=O)NCc1ccc(C(=O)N2CCCC2C(=O)N(C)C)cc1` (stereo not drawn) [2-D22, N,N-dimethyl-1-{4-[(prop-2-enamido)methyl]benzoyl}pyrrolidine-2-carboxamide], for which the viability at 48 h, 25 µM came to 71.2%.

For `C=CC(=O)NCC1CC(CC(=O)O)CO1` (stereo not drawn) [2-E03, 2-{5-[(prop-2-enamido)methyl]oxolan-3-yl}acetic acid], the viability at 48 h, 25 µM is 182%.

Consider `C=CC(=O)NC1(c2ccc(C(F)(F)F)cc2)CCCC1` [2-E04, N-{1-[4-(trifluoromethyl)phenyl]cyclopentyl}prop-2-enamide], for which the viability at 48 h, 25 µM is 82.6%.

On to `C=CC(=O)NC[C@@H]1C[C@H](F)CN1Cc1ccnn1C` [2-E05, N-{[(2S,4S)-4-fluoro-1-[(1-methyl-1H-pyrazol-5-yl)methyl]pyrrolidin-2-yl]methyl}prop-2-enamide], for which the viability at 48 h, 25 µM turned out to be 78.5%.

Regarding `C=CC(=O)Nc1ccc(S(=O)(=O)N(C)C)c(C)c1` [2-E06, N-[4-(dimethylsulfamoyl)-3-methylphenyl]prop-2-enamide], the viability at 48 h, 25 µM came to 78.7%.

In the case of `C=CC(=O)N(Cc1cc(C)cc2c(C)c(C)[nH]c12)CC1(C)COC1` [2-E07, N-[(3-methyloxetan-3-yl)methyl]-N-[(2,3,5-trimethyl-1H-indol-7-yl)methyl]prop-2-enamide], the viability at 48 h, 25 µM stood at 80.6%.

On to `C=CC(=O)N1CCC(n2cc(CO)nn2)C1` (stereo not drawn) [2-E08, 1-{3-[4-(hydroxymethyl)-1H-1,2,3-triazol-1-yl]pyrrolidin-1-yl}prop-2-en-1-one], for which the viability at 48 h, 25 µM came to 81.8%.

On to `C=CC(=O)N1CCC(c2nc(C3CC3)no2)C1` (stereo not drawn) [2-E09, 1-[3-(3-cyclopropyl-1,2,4-oxadiazol-5-yl)pyrrolidin-1-yl]prop-2-en-1-one], for which the viability at 48 h, 25 µM amounted to 70%.

`C=CC(=O)Nc1cc(NC(=O)C2CCC2)ccc1F` [2-E10, N-[4-fluoro-3-(prop-2-enamido)phenyl]cyclobutanecarboxamide]: the viability at 48 h, 25 µM was determined as 86.7%.

Regarding `C=CC(=O)NC1CN(S(=O)(=O)c2ccc3c(c2)OCCO3)C1` [2-E11, N-[1-(2,3-dihydro-1,4-benzodioxine-6-sulfonyl)azetidin-3-yl]prop-2-enamide], the viability at 48 h, 25 µM was found to be 79.7%.

Consider `C=CC(=O)N1CCC(C(=O)N2CCCC2COC)CC1` (stereo not drawn) [2-E12, 1-{4-[2-(methoxymethyl)pyrrolidine-1-carbonyl]piperidin-1-yl}prop-2-en-1-one], for which the viability at 48 h, 25 µM turned out to be 116%.

Consider `C=CC(=O)N(Cc1ccc(F)c(C)c1)CC1(O)CCSCC1` [2-E13, N-[(4-fluoro-3-methylphenyl)methyl]-N-[(4-hydroxythian-4-yl)methyl]prop-2-enamide], for which the viability at 48 h, 25 µM turned out to be 55.6%.

For the molecule `C=CC(=O)NCCS(=O)(=O)N1CCOCC1` [2-E14, N-[2-(morpholine-4-sulfonyl)ethyl]prop-2-enamide], the viability at 48 h, 25 µM was 94.6%.

For the molecule `C=CC(=O)NCc1nc(C(C)(C)O)n[nH]1` [2-E15, N-{[3-(2-hydroxypropan-2-yl)-1H-1,2,4-triazol-5-yl]methyl}prop-2-enamide], the viability at 48 h, 25 µM was 116%.

For the molecule `C=CC(=O)Nc1ccc(-n2nc(C)[nH]c2=O)cc1` [2-E16, N-[4-(3-methyl-5-oxo-4,5-dihydro-1H-1,2,4-triazol-1-yl)phenyl]prop-2-enamide], the viability at 48 h, 25 µM came to 101%.

`C=CC(=O)N1CCCCC(S(C)(=O)=O)C1` (stereo not drawn) [2-E17, 1-(3-methanesulfonylazepan-1-yl)prop-2-en-1-one]: the viability at 48 h, 25 µM came out at 110%.

For the molecule `C=CC(=O)N1CCCC(CS(=O)(=O)NC)C1` (stereo not drawn) [2-E18, N-methyl-1-[1-(prop-2-enoyl)piperidin-3-yl]methanesulfonamide], the viability at 48 h, 25 µM was found to be 95%.

For `C=CC(=O)NC1CCC(n2c(C)ccc2C)CC1` (stereo not drawn) [2-E19, N-[4-(2,5-dimethyl-1H-pyrrol-1-yl)cyclohexyl]prop-2-enamide], the viability at 48 h, 25 µM stood at 71.1%.

Take `C=CC(=O)N(C)CC(=O)N1CCCCC1c1nc(C)c(C)s1` (stereo not drawn) [2-E20, N-{2-[2-(4,5-dimethyl-1,3-thiazol-2-yl)piperidin-1-yl]-2-oxoethyl}-N-methylprop-2-enamide]: the viability at 48 h, 25 µM is 116%.

As for `C=CC(=O)Nc1ccc(C(=O)N2CCC[C@@H]2C(=O)OC)cc1` [2-E21, methyl (2R)-1-[4-(prop-2-enamido)benzoyl]pyrrolidine-2-carboxylate], the viability at 48 h, 25 µM turned out to be 104%.

In the case of `C=CC(=O)NC(CO)c1cccc(OC)c1` (stereo not drawn) [2-E22, N-[2-hydroxy-1-(3-methoxyphenyl)ethyl]prop-2-enamide], the viability at 48 h, 25 µM was found to be 122%.

`C=CC(=O)NCCn1cc(Cl)c(C(F)(F)F)n1` [2-F03, N-{2-[4-chloro-3-(trifluoromethyl)-1H-pyrazol-1-yl]ethyl}prop-2-enamide]: the viability at 48 h, 25 µM was 81.6%.

For `C=CC(=O)N1CCC(C(=O)N2Cc3ccc([N+](=O)[O-])cc3C2)CC1` [2-F04, 1-[4-(5-nitro-2,3-dihydro-1H-isoindole-2-carbonyl)piperidin-1-yl]prop-2-en-1-one], the viability at 48 h, 25 µM was determined as 82.7%.

Consider `C=CC(=O)N1CCC(C(=O)N2CCCC(NC(=O)C(C)(C)C)C2)CC1` (stereo not drawn) [2-F05, 2,2-dimethyl-N-{1-[1-(prop-2-enoyl)piperidine-4-carbonyl]piperidin-3-yl}propanamide], for which the viability at 48 h, 25 µM came to 75.6%.
